The target of test [1] is IRAK4 protein in THP-1 cells (Homo sapiens (Human), UniProt Q9NWZ3). The test can be described thus: Degradation of IRAK4 in THP-1 cells, human IRAK4 AlphaLISA assay. Format: cell-based. The note with it: 24 h incubation. The procedure, abridged: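 THP-1 cells, after overnight plating, exposed 24 h at 37 °C to compound at 0.03-3000 nM final. Lysate IRAK4 read by Western blot and by AlphaLISA (acceptor beads 10 μg/mL, biotin anti-IRAK4 1 nM, donor beads 40 μg/mL, 23 °C). DC50 and Dmax from log concentration-response fit.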

Test [2] has as its target IRAK4 kinase (Homo sapiens (Human), UniProt Q9NWZ3). Description: IRAK4 kinase activity test (KinEASE-STK S1 HTRF kit). Format: biochemical. The note with it: 2.5 nM IRAK4 kinase, 7 μM ATP, 37° C. 120 min. How it is done:
Then 2.5 nM 1RAK4 kinase (Carna), 1 μM biotinylated polypeptide substrate (Cisbio) and 7 μM adenosine triphosphate (Sigma-Aldrich) were sequentially added, and the mixtures were incubated at 37° C. for 120 min. Subsequently, an anti-phosphoserine/threonine antibody (Cisbio) conjugated with a europium element compound and conjugated modified XL665 streptavidin (Cisbio) were added to the reaction systems to stop the reactions. After 1 h of incubation at room temperature, the fluorescence intensity of each well was measured at the excitation wavelength of 337 nm and the emission wavelengths of 620 nm and 665 nm with a microplate reader EnVision (PerkinElmer) in the HTRF mode, and Ratio values were calculated using the formula Ratio=(665 nm/620 nm)×[…]. The inhibition rate of the compound at each concentration was calculated by comparing the fluorescence intensity ratio with that of the control group. Then a non-linear curve fitting of logarithmic concentration-inhibition rate was performed using GraphPad Prism 7, and the IC50 value of the compound was obtained.

For orientation: DC50 means the concentration at which degradation of the target reaches its halfway point. A lower DC50 goes with degradation at low concentration. One may read the Dmax as the greatest extent of degradation seen. One may read the IC50 as the concentration that gives 50% inhibition.

Sequence of IRAK4 kinase (Q9NWZ3 whole entry): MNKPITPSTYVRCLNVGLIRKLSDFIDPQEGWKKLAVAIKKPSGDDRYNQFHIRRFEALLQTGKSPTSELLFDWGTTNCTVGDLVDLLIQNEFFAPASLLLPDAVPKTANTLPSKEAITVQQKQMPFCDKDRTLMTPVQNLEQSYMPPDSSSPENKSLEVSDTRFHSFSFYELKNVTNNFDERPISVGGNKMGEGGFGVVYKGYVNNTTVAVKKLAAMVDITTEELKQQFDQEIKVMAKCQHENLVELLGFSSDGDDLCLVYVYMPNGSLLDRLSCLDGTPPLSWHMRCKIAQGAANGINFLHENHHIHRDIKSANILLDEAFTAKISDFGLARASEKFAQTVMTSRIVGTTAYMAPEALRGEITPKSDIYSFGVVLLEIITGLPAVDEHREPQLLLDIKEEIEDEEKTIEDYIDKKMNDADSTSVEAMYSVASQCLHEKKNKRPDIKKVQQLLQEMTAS
Sequence of IRAK4 protein in THP-1 cells (Q9NWZ3 whole entry): as above

In test [1], `N[C@H]1CCCN(c2ccn3ncc(C(=O)Nc4cn(C5CCN(CC6CCC7(CC6)CCN(C(=O)c6ccc(Cl)c(N8CCC(=O)NC8=O)c6)CC7)CC5)nc4C(F)F)c3n2)C1` [Example 64, (S)-5-(3-aminopiperidin-1-yl)-N-(1-(1-((3-(4-chloro-3-(2,4-dioxotetrahydropyrimidin-1(2H)-yl)benzoyl)-3-azaspiro[5.5]undecan-9-yl)methyl)piperidin-4-yl)-3-(difluoromethyl)-1H-pyrazol-4-yl)pyrazolo[1,5-a]pyrimidine-3-carboxamide] had a DC50 of 7.47 nM and a Dmax of 96.1%. In addition, the IC50 in test [2] came out at 5.93 nM.

In test [1], `O=C1CCN(c2cc(C(=O)N3CCC4(CCC(CN5CCC(n6cc(NC(=O)c7cnn8ccc(N9CCOCC9)nc78)c(C(F)F)n6)CC5)CC4)CC3)ccc2F)C(=O)N1` [Example 24, N-(3-(difluoromethyl)-1-(1-((3-(3-(2,4-dioxotetrahydropyrimidin-1(2H)-yl)-4-fluorobenzoyl)-3-azaspiro[5.5]undecan-9-yl)methyl)piperidin-4-yl)-1H-pyrazol-4-yl)-5-morpholinopyrazolo[1,5-a]pyrimidine-3-carboxamide] displayed a DC50 of 6.16 nM and a Dmax of 96.3%. In test [2], this molecule displayed an IC50 of 6.08 nM.

For `COc1ccc(C(=O)N2CCC3(CCC(CN4CCC(n5cc(NC(=O)c6cnn7ccc(N8CC9CCC(C8)O9)nc67)c(C(F)F)n5)CC4)CC3)CC2)cc1N1CCC(=O)NC1=O` [Example 16, 5-(8-oxa-3-azabicyclo[3.2.1]octan-3-yl)-N-(3-(difluoromethyl)-1-(1-((3-(3-(2,4-dioxotetrahydropyrimidin-1(2H)-yl)-4-methoxybenzoyl)-3-azaspiro[5.5]undecan-9-yl)methyl)piperidin-4-yl)-1H-pyrazol-4-yl)pyrazolo[1,5-a]pyrimidine-3-carboxamide], in test [1], half-maximal degradation (DC50) was put at 6.4 nM and the Dmax turned out to be 87.9%. Also, the IC50 in test [2] is 8.8 nM.

In test [1], `O=C1CCN(c2cc(C(=O)N3CCC(CCCCN4CCC(n5cc(NC(=O)c6cnn7ccc(N8C[C@H]9C[C@@H]8CO9)nc67)c(C(F)F)n5)CC4)CC3)ccc2Cl)C(=O)N1` [Example 21, 5-((1R,4R)-2-oxa-5-azabicyclo[2.2.1]heptan-5-yl)-N-(1-(1-(4-(1-(4-chloro-3-(2,4-dioxotetrahydropyrimidin-1(2H)-yl)benzoyl)piperidin-4-yl)butyl)piperidin-4-yl)-3-(difluoromethyl)-1H-pyrazol-4-yl)pyrazolo[1,5-a]pyrimidine-3-carboxamide] displayed a DC50 of 9.6 nM and a Dmax of 95.5%. In test [2], this molecule had an IC50 of 9.9 nM.

In test [1], `O=C1CCN(c2cc(C(=O)N3CCC(CCN4CCC(n5cc(NC(=O)c6cnn7ccc(N8CCOCC8)nc67)c(C(F)F)n5)CC4)CC3)ccc2F)C(=O)N1` [Example 37, N-(3-(difluoromethyl)-1-(1-(2-(1-(3-(2,4-dioxotetrahydropyrimidin-1(2H)-yl)-4-fluorobenzoyl)piperidin-4-yl)ethyl)piperidin-4-yl)-1H-pyrazol-4-yl)-5-morpholinopyrazolo[1,5-a]pyrimidine-3-carboxamide] showed a DC50 of 42 nM and a Dmax of 81.1%. The same molecule yielded an IC50 in test [2] of 13.1 nM.

Consider `O=C1CCN(c2cc(C(=O)N3CCN(CCCCN4CCC(n5cc(NC(=O)c6cnn7ccc(N8C[C@H]9C[C@@H]8CO9)nc67)c(C(F)F)n5)CC4)CC3)ccc2Cl)C(=O)N1` [Example 40, 5-((1R,4R)-2-oxa-5-azabicyclo[2.2.1]heptan-5-yl)-N-(1-(1-(4-(4-(4-chloro-3-(2,4-dioxotetrahydropyrimidin-1(2H)-yl)benzoyl)piperazin-1-yl)-n-butyl)piperidin-4-yl)-3-(difluoromethyl)-1H-pyrazol-4-yl)pyrazolo[1,5-a]pyrimidine-3-carboxamide], for which, in test [1], the DC50 stood at 32.8 nM and the Dmax worked out at 79.2%. The molecule also had an IC50 in test [2] of 34.5 nM.

In test [1], `O=C1CCN(c2cc(C(=O)N3CCC(OCCCN4CCC(n5cc(NC(=O)c6cnn7ccc(N8C[C@H]9C[C@@H]8CO9)nc67)c(C(F)F)n5)CC4)CC3)ccc2Cl)C(=O)N1` [Example 23, 5-((1R,4R)-2-oxa-5-azabicyclo[2.2.1]heptan-5-yl)-N-(1-(1-(3-((1-(4-chloro-3-(2,4-dioxotetrahydropyrimidin-1(2H)-yl)benzoyl)piperidin-4-yl)oxy)propyl)piperidin-4-yl)-3-(difluoromethyl)-1H-pyrazol-4-yl)pyrazolo[1,5-a]pyrimidine-3-carboxamide] yielded a DC50 of 10.1 nM and a Dmax of 93.7%. For the same molecule, the IC50 in test [2] was determined as 23 nM.

In test [1], `Cc1ccc(C(=O)N2CCC3(CCC(CN4CCC(n5cc(NC(=O)c6cnn7ccc(N8CCOCC8)nc67)c(C(F)F)n5)CC4)CC3)CC2)cc1N1CCC(=O)NC1=O` [Example 34, N-(3-(difluoromethyl)-1-(1-((3-(3-(2,4-dioxotetrahydropyrimidin-1(2H)-yl)-4-methylbenzoyl)-3-azaspiro[5.5]undecan-9-yl)methyl)piperidin-4-yl)-1H-pyrazol-4-yl)-5-morpholinopyrazolo[1,5-a]pyrimidine-3-carboxamide] yielded a DC50 of 3.55 nM and a Dmax of 87.1%. In test [2], this molecule registered an IC50 of 11 nM.

In test [1], `COc1ccc(C(=O)N2CCC3(CCN(CCCCN4CCC(n5cc(NC(=O)c6cnn7ccc(N8CCOCC8)nc67)c(C(F)F)n5)CC4)CC3)CC2)cc1N1CCC(=O)NC1=O` [Example 61, N-(3-(difluoromethyl)-1-(1-(4-(9-(3-(2,4-dioxotetrahydropyrimidin-1(2H)-yl)-4-methoxybenzoyl)-3,9-diazaspiro[5.5]undecan-3-yl)butyl)piperidin-4-yl)-1H-pyrazol-4-yl)-5-morpholinopyrazolo[1,5-a]pyrimidine-3-carboxamide] returned a DC50 of 29 nM and a Dmax of 87.9%. In test [2], 9.06 nM corresponded to half-maximal inhibition (IC50).

For the molecule `O=C1CCN(c2cc(C(=O)N3CCC4(CCC(CN5CCC(n6cc(NC(=O)c7cnn8ccc(N9CCS(=O)(=O)CC9)nc78)c(C(F)F)n6)CC5)CC4)CC3)ccc2Cl)C(=O)N1` [Example 63, N-(1-(1-((3-(4-chloro-3-(2,4-dioxotetrahydropyrimidin-1(2H)-yl)benzoyl)-3-azaspiro[5.5]undecan-9-yl)methyl)piperidin-4-yl)-3-(difluoromethyl)-1H-pyrazol-4-yl)-5-(1,1-dioxothiomorpholinyl)pyrazolo[1,5-a]pyrimidine-3-carboxamide], in test [1], the DC50 worked out at 9.18 nM and the Dmax is 79.3%. This molecule gave an IC50 in test [2] of 36.2 nM.

With `COc1ccc(C(=O)N2CCC3(CCN(CCCN4CCC(n5cc(NC(=O)c6cnn7ccc(N8CCOCC8)nc67)c(C(F)F)n5)CC4)CC3)CC2)cc1N1CCC(=O)NC1=O` [Example 60, N-(3-(difluoromethyl)-1-(1-(3-(9-(3-(2,4-dioxotetrahydropyrimidin-1(2H)-yl)-4-methoxybenzoyl)-3,9-diazaspiro[5.5]undecan-3-yl)propyl)piperidin-4-yl)-1H-pyrazol-4-yl)-5-morpholinopyrazolo[1,5-a]pyrimidine-3-carboxamide], in test [1], it took 9.36 nM to reach half-maximal degradation (DC50) and the Dmax was found to be 96.6%. Besides, in test [2], the IC50 came to 21.9 nM.

In test [1], `O=C1CCN(c2cc(C(=O)N3CCC4(CCC(CN5CCC(n6cc(NC(=O)c7cnn8ccc(N9CCOCC9)nc78)c(C(F)F)n6)CC5)CC4)CC3)ccc2Cl)C(=O)N1` [Example 15, N-(1-(1-((3-(4-chloro-3-(2,4-dioxotetrahydropyrimidin-1(2H)-yl)benzoyl)-3-azaspiro[5.5]undecan-9-yl)methyl)piperidin-4-yl)-3-(difluoromethyl)-1H-pyrazol-4-yl)-5-morpholinopyrazolo[1,5-a]pyrimidine-3-carboxamide] displayed a DC50 of 2.5 nM and a Dmax of 92.1%. Besides, the IC50 in test [2] was determined as 14.2 nM.

As to `O=C1CCN(c2cc(C(=O)N3CCC4(CCC(CN5CCC(n6cc(NC(=O)c7cnn8ccc(N9CCC[C@H](O)C9)nc78)c(C(F)F)n6)CC5)CC4)CC3)ccc2Cl)C(=O)N1` [Example 57, (S)-N-(1-(1-((3-(4-chloro-3-(2,4-dioxotetrahydropyrimidin-1(2H)-yl)benzoyl)-3-azaspiro[5.5]undecan-9-yl)methyl)piperidin-4-yl)-3-(difluoromethyl)-1H-pyrazol-4-yl)-5-(3-hydroxypiperidin-1-yl)pyrazolo[1,5-a]pyrimidine-3-carboxamide], in test [1], the DC50 is 0.58 nM and the Dmax amounted to 96.6%. Moreover, in test [2], the IC50 came to 4.57 nM.

In test [1], `COc1ccc(C(=O)N2CCC3(CCC(CN4CCC(n5cc(NC(=O)c6cnn7ccc(N8C[C@H]9C[C@@H]8CO9)nc67)c(C(F)F)n5)CC4)CC3)CC2)cc1N1CCC(=O)NC1=O` [Example 13, 5-((1R,4R)-2-oxa-5-azabicyclo[2.2.1]heptan-5-yl)-N-(3-(difluoromethyl)-1-(1-((3-(3-(2,4-dioxotetrahydropyrimidin-1(2H)-yl)-4-methoxybenzoyl)-3-azaspiro[5.5]undecan-9-yl)methyl)piperidin-4-yl)-1H-pyrazol-4-yl)pyrazolo[1,5-a]pyrimidine-3-carboxamide] registered a DC50 of 5.5 nM and a Dmax of 84.4%. The IC50 in test [2] turned out to be 19.3 nM.

The values above are taken from patent US20240368194A1, “IRAK4 DEGRADATION AGENT, AND PREPARATION METHOD THEREFOR AND USE THEREOF” (SHANGHAI LEADINGTAC PHARMACEUTICAL CO. LTD., priority 2021, published 2024).
